What was measured:
[1] = test system: Reactive Oxygen Species (ROS) production in PBMCs; assay: Isoluminol assay: ROS production in PMA-activated PBMCs; assay type: cell-based, human; settings: PBMCs activated with PMA at 30 ng/ml; luminescence measured over 25 minutes; FIGS. 1 and 2
Description: Oxygen metabolism has an important role in the pathogenesis of both rheumatoid arthritis and multiple sclerosis. Reactive oxygen species (ROS) produced in the course of cellular oxidative phosphorylation, and by activated phagocytic cells during oxidative bursts, exceed the physiological buffering capacity and result in oxidative stress. The excessive production of ROS can damage protein, lipids, nucleic acids, and matrix components. ROS also serve as important intracellular signaling molecules that amplify the synovial inflammatory-proliferative response.
Frozen PBMCs, isolated from human blood (Blodcentralen, Lund, Sweden) through gradient centrifugation using Ficoll, were thawed quickly, activated with PMA at 30 ng/ml and treated with Rabeximod or the inventive compound, at different concentrations ranging from 12.5 μg/ml with 1:2 dose titrations over 8 steps. Controls included were DMSO control, PMA at 30 ng/ml and 0 μg/ml of test items. […] Cell concentration was determined using a Scepter cell counter (Millipore Merck, MA, USA) and diluted at 2×10^6 cells/ml when added to the assay plate. The luminescence signal was measured over 25 minutes.
ROS production was investigated after treatment with the inventive compound or Rabeximod at different concentrations ranging from 12.5 μg/ml with 1:2 dose titrations over 8 steps. Luminescence signal was measured over 25 minutes.

[2] = test system: collagen antibody induced arthritis (CAIA); assay: Collagen antibody induced arthritis (CAIA) mouse model; assay type: in vivo, mice (DBA/1); settings: for histological (IHC) score of front paws compared with vehicle: 20 mg/kg, at study termination, score 0-3, FIG. 8; for adverse effects from treatments: CAIA mice, any of the doses tested (5, 10, 20 mg/kg s.c.); for disease severity (macroscopic arthritis score) compared with vehicle: not significant
Description: The collagen antibody induced arthritis (CAIA) arthritis in mice is a model independent of both B and T cells. CAIA is an acute model of arthritis and the disease is induced with antibodies to collagen type II. The antibodies bind to cartilage, leading to activation of the immune system followed by recruiting of macrophages and granulocytes to the joints. After an LPS boost at day five, disease progression starts and reaches a maximum around day 15. CAIA model: Mice (DBA/1, 8-10 weeks old) were weighed at day −1 for determination of mean weight of animals in the experiment and for composition of groups. Groups were mixed within cages to avoid cage effects. The mice were injected i.v. with a cocktail of four (4) monoclonal antibodies against collagen type II (2 mg/mouse) on day 0. Day 5 the mice were injected with LPS (50 μg/mouse) i.p., in order to boost the disease. Dose preparation of test items were performed daily in corn oil. Disease was evaluated daily from day 3 in a blinded fashion using a macroscopic scoring system of the four limbs ranging from 0 to 15 (1 point for each swollen or red toe, 1 point for a swollen or red mid foot digit or knuckle, 5 points for a swollen ankle) resulting in a maximum total score of 60 for each mouse. Due to ethical restrictions, animals with a score exceeding 45 were removed from the experiment. Immunohistochemistry: Front paws from animals, in the vehicle, Rabeximod (20 mg/kg) and the inventive compound (20 mg/kg) groups, were collected at termination of the animals. The paws were immediately transferred to 4% formaldehyde containing vials for immersion fixation. The tissues were fired for 24 hours and then transferred to 70% EtOH and stored at +4° C. until staining. Paws were decalcified, paraffin embedded, sectioned and stained for hematoxylin and eosin (H&E). Resulting slides were photographed at high resolution. Images were used for morphology analysis to study cartilage destruction and infiltration of inflammatory cells in the joints. An overall assessment for the whole paw were scored (0-3), including evaluation of synovial inflammation, synovial pannus formation and bone destruction. Graphs and statistical analysis were performed using Prism 8 for Mac OS X (GraphPad Software, San Diego, CA, USA). Results are presented as mean values±SEM, if not otherwise stated. Statistics were calculated using a two-tailed non-parametric Mann-Whitney test where p<0.05 was considered significant. * represents a p-value<0.05, ** represents a p-value<0.01 and *** represents a p-value<0.001.

TNF-α = assay: LPS assay: TNF-α release in whole blood; assay type: cell-based, human; settings: LPS 500 ng/ml
Protocol: (§1) Inflammation can be induced in vitro by stimulation with LPS, manifested by the release of various cytokines. […] TNF-α, IL1β and IL-6 are important cytokines in the pathogenesis of RA and MS and therefore selected in this assay.
(§2) Whole blood was collected from an adult volunteer in Heparin tubes. LPS stimulation started within 60 minutes of blood draw. The blood was diluted with RPMI and then stimulated with LPS and incubated with different concentrations of either Rabeximod or the inventive compound. The samples were centrifuged and plasma harvested and analysed on Luminex to measure cytokines.
(§3) The release of cytokines and chemokines was investigated after stimulation of whole blood with LPS, and treatment with either the inventive compound or Rabeximod.

[3] = test system: pristane-induced arthritis (PIA); assay: Pristane-induced arthritis (PIA) rat model; assay type: in vivo; settings: 20 mg/kg s.c. days 5, 7, 9, 11, 13, 15
Description: Pristane-induced arthritis (PIA) in rats is an animal model that mimics the criteria used for diagnosis of rheumatoid arthritis (RA). PIA is one of the most reproducible models of RA with high incidence and little variation in severity. Disease is characterized by a pronounced T cell dependent inflammatory response resulting in inflammation of peripheral joints. Disease is induced with a single injection of pristane and has a highly reproducible onset of arthritis between day 8-12. The most severe phase of arthritis is often between day 15-25 after induction and experiment can be terminated after 25-30 days. For disease induction rats were anaesthetized with IsoFlo vet (3%) and oxygen. The root of the tail was cleaned with EtOH and pristane was injected subcutaneously (s.c.) (volume 200 μl) approximately 0.5 cm from the root of the tail. A slight pressure was put on the injection site for 10 seconds after injections to prevent leakage of oil. Rats were removed from anaesthetics and the breathing was monitored until recovery was ensured. […] Disease was evaluated 3 times per week in a blinded fashion from day 10 using a macroscopic scoring system of the four limbs ranging from 0 to (1 point for each swollen or red toe, 1 point for a swollen or red mid foot digit or knuckle, […]) resulting in a maximum total score of 60 for each rat. […]

IL-6 = assay: LPS assay: IL-6 release in whole blood; assay type: cell-based, human; settings: LPS 500 ng/ml
Protocol: as §1, §2, §3

IL-1β = assay: LPS assay: IL-1β release in whole blood; assay type: cell-based, human; settings: LPS 500 ng/ml
Protocol: as §1, §2, §3

[4] = lower concentrations (from 312.5 nM, below 5000 nM)

## Cc1cc2nc3c4cc(Cl)ccc4n(CC(=O)NCCN(C)C)c3nc2cc1C [Rabeximod, 2-(9-chloro-2,3-dimethyl-6H-indolo[2,3-b]quinoxalin-6-yl)-N-(2-(dimethylamino)ethyl)acetamide]
[1]
  concentration that inhibits ROS production completely: 12.5 µg/mL
[2]
  histological (IHC) score of front paws compared with vehicle: No significant difference
  adverse effects from treatments: No adverse effects
[2]; all three doses (5, 10 and 20 mg/kg) s.c. every other day from day 5, six administrations, FIG. 7
  disease severity (macroscopic arthritis score) compared with vehicle: small decrease in disease severity

## Cc1cc2nc3c4cc(Cl)ccc4n(CC(=S)NCCN(C)C)c3nc2cc1C [inventive compound, 2-(9-chloro-2,3-dimethyl-6H-indolo[2,3-b]quinoxalin-6-yl)-N-(2-(dimethylamino)ethyl)ethanethioamide]
TNF-α; compound at 5000 nM, FIG. 3
  level of TNF-α compared to Rabeximod: significantly lower
TNF-α; [4]
  level of TNF-α compared to Rabeximod: trend of reduced cytokines levels
[1]
  concentration that inhibits ROS production completely: 6.25 µg/mL
[3]; all study time points measured, FIG. 9
  RA score (macroscopic arthritis score): slightly lower
[3]; compared with Rabeximod
  efficacy during the most severe phase of arthritis: better efficacy than Rabeximod
[2]
  histological (IHC) score of front paws compared with vehicle: significantly lower
  adverse effects from treatments: No adverse effects
[2]; 5, 10 and 20 mg/kg s.c.
  dose-response of arthritis severity compared to Rabeximod: clear dose-response
[2]; 10 and 20 mg/kg s.c. every other day from day 5, six administrations, FIG. 6
  disease severity (macroscopic arthritis score) compared with vehicle: small decrease in disease severity
other
  melting point: 184 to 188 °C
IL-6; compound at 5000 nM, FIG. 4
  level of IL-6 compared to Rabeximod: significantly lower
IL-6; [4]
  level of IL-6 compared to Rabeximod: trend of reduced cytokines levels
IL-1β; compound at 5000 nM, FIG. 5
  level of IL-1β compared to Rabeximod: significantly lower
IL-1β; [4]
  level of IL-1β compared to Rabeximod: trend of reduced cytokines levels
